In the Kinase Knowledgebase extract (Sharma et al. 2016):

Tests used:
[1] = test system: EGFR (Human), P00533 [T790M/L858R]; settings: nci-h1975
[2] = test system: EGFR (Human), P00533 [Assessment of Proliferation in EGFR DelE746_A750 Mutant Expressing HCC827 Cells]
Chain of EGFR (Human), P00533 [Assessment of Proliferation in EGFR DelE746_A750 Mutant Expressing HCC827 Cells] (P00533 whole entry, looked up, stated change not applied): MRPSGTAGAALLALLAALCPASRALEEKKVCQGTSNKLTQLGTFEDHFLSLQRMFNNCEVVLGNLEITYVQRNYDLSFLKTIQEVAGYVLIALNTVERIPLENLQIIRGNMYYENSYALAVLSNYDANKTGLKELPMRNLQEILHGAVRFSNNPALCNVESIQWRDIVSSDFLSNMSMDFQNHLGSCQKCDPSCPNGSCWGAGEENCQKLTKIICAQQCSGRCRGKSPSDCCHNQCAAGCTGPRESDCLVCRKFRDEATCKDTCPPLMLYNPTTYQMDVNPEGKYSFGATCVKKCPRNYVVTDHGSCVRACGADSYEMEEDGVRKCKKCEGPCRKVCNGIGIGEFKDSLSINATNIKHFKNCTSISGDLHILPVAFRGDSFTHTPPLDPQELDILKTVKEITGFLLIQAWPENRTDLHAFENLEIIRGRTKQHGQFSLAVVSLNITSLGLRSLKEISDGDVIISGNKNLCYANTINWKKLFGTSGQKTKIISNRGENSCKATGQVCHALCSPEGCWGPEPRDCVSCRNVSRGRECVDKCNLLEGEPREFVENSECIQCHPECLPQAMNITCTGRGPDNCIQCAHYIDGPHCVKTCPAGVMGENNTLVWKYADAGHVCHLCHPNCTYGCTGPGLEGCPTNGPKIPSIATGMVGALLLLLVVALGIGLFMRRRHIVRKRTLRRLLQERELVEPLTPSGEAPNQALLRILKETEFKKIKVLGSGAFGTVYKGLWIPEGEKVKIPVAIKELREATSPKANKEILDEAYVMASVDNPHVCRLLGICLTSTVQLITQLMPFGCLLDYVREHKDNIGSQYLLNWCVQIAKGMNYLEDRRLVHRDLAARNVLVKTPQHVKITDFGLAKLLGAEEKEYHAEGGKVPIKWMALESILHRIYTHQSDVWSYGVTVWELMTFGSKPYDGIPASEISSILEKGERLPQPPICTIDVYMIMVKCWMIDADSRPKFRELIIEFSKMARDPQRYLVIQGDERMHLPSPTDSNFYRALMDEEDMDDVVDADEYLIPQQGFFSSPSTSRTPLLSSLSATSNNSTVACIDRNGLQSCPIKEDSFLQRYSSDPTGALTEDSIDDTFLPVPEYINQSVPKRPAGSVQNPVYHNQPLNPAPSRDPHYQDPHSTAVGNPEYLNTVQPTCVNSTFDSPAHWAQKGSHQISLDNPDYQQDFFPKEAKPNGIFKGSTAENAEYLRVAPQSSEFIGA

Chain of EGFR (Human), P00533 [T790M/L858R] (P00533 whole entry T790M/L858R, looked up): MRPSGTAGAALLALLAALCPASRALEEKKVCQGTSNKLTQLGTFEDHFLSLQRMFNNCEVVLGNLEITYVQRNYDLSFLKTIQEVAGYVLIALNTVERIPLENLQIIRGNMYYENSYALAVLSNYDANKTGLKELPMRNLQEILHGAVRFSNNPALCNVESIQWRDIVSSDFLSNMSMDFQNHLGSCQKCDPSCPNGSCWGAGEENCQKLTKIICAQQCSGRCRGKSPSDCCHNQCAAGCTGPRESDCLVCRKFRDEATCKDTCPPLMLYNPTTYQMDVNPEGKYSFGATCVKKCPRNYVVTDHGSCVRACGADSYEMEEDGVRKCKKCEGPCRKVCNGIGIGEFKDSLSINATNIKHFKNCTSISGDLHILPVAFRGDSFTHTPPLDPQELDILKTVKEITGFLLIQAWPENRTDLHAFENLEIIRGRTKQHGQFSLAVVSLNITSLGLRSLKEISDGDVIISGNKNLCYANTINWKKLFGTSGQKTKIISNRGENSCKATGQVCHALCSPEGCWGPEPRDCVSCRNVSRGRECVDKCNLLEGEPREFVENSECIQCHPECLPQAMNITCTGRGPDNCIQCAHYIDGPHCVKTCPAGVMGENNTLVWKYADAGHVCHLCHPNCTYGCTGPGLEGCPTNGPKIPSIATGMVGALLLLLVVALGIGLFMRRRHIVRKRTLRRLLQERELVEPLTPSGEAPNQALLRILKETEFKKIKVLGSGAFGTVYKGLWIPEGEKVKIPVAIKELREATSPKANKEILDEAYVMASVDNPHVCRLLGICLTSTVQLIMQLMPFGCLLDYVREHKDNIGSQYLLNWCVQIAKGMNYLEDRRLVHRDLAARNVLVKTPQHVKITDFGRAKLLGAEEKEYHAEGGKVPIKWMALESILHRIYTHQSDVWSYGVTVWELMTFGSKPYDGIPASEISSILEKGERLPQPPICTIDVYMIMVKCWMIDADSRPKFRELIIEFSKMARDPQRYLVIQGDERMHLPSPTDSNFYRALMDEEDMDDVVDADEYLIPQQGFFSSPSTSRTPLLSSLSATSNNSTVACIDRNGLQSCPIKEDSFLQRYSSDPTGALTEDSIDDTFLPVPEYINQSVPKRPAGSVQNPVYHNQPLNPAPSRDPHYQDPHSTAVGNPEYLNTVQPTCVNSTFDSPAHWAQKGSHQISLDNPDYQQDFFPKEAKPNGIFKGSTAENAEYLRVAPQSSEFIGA

GI50 [2] [nM] | SMILES | GI50 [1] [nM]
≤ 50 | C=CC(=O)Nc1cccc(Oc2nc(Nc3ccc(NCCN(C)C)c(F)c3)nc3ccsc23)c1 | ≤ 50
≤ 50 | C=CC(=O)Nc1cccc(Oc2nc(Nc3ccc(N4CCN(C)CC4)nc3)nc3ccsc23)c1 | ≤ 50
≤ 50 | C=CC(=O)Nc1cccc(Oc2nc(Nc3ccc(N4CCOCC4)c(F)c3)nc3ccsc23)c1 | ≤ 50
≤ 50 | C=CC(=O)Nc1cccc(Oc2nc(Nc3ccc(N4CCN(C)CC4)c(F)c3)nc3ccsc23)c1 | ≤ 50
≤ 50 | C=CC(=O)Nc1cccc(Oc2nc(Nc3ccc4c(c3)NCCCO4)nc3ccsc23)c1 | ≤ 50
100 to 1000 | C=CC(=O)Nc1cccc(Oc2nc(Nc3ccc(O)cc3)nc3ccsc23)c1 | 100 to 1000
≤ 50 | C=CC(=O)Nc1cccc(Nc2nc(Nc3ccc(N4CCN(CC)CC4)cc3)nc3ccsc23)c1 | ≤ 50
≤ 50 | C=CC(=O)Nc1cccc(Oc2nc(Nc3ccc(N4CCN(C(=O)N5CCOCC5)CC4)cc3)nc3ccsc23)c1 | 50 to 100
≤ 50 | C=CC(=O)Nc1cccc(Oc2nc(Nc3ccc(CP(=O)(OC)OC)cc3)nc3ccsc23)c1 | ≤ 50
≤ 50 | C=CC(=O)Nc1cccc(Oc2nc(Nc3ccc(C(C)=O)cc3)nc3ccsc23)c1 | ≤ 50
≤ 50 | C=CC(=O)Nc1cccc(Oc2nc(Nc3ccc(C4CCCN(C)C4)c(F)c3)nc3ccsc23)c1 (stereo unspecified) | ≤ 50
≤ 50 | C=CC(=O)Nc1cccc(Oc2nc(Nc3ccc(C4=CCN(C)CC4)cc3)nc3ccsc23)c1 | ≤ 50
≤ 50 | C=CC(=O)Nc1cccc(Oc2nc(Nc3ccc(N4CCC(n5ccnc5)CC4)cc3)nc3ccsc23)c1 | ≤ 50
100 to 1000 | C=CC(=O)Nc1cccc(Oc2nc(Nc3ccc(N4CCSCC4)cc3)nc3ccsc23)c1 | ≤ 50
≤ 50 | C=CC(=O)Nc1cccc(Oc2nc(Nc3ccc4c(c3)CCN4C(=O)CN(C)C)nc3ccsc23)c1 | ≤ 50
≤ 50 | C=CC(=O)Nc1cccc(Oc2nc(Nc3ccc(N4CCN(CCF)CC4)cc3)nc3ccsc23)c1 | 50 to 100
≤ 50 | C=CC(=O)Nc1cccc(Oc2nc(Nc3ccc(NC(=O)CCN4CCCC4)cc3)nc3ccsc23)c1 | ≤ 50
≤ 50 | C=CC(=O)Nc1cccc(Nc2nc(Nc3ccc(N4CCN(C)CC4)c(F)c3)nc3ccsc23)c1 | ≤ 50
≤ 50 | C=CC(=O)Nc1cccc(Oc2nc(Nc3ccc(CCO)cc3)nc3ccsc23)c1 | ≤ 50
≤ 50 | C=CC(=O)Nc1cccc(Oc2nc(Nc3ccc(C(=O)NCCN4CCCC4)cc3)nc3ccsc23)c1 | ≤ 50
50 to 100 | C=CC(=O)Nc1cccc(Oc2nc(Nc3ccc(N4CC(C)OC(C)C4)c(F)c3)nc3ccsc23)c1 (stereo unspecified) | 50 to 100
≤ 50 | C=CC(=O)Nc1cccc(Oc2nc(Nc3ccc(N4CCC(n5ccnc5)C4)cc3)nc3ccsc23)c1 (stereo unspecified) | ≤ 50
≤ 50 | C=CC(=O)Nc1cccc(Oc2nc(Nc3ccc(N4CCN(C)CC4)c(Cl)c3)nc3ccsc23)c1 | ≤ 50
50 to 100 | C=CC(=O)Nc1cccc(Oc2nc(Nc3ccc(OCCN4CCOCC4)c(F)c3)nc3ccsc23)c1 | ≤ 50
50 to 100 | C=CC(=O)Nc1cccc(Oc2nc(Nc3ccc(CCN4CCN(CC)CC4)cc3)nc3ccsc23)c1 | ≤ 50

GI50 [2] [nM] | SMILES | GI50 [1] [nM]
≤ 50 | C=CC(=O)Nc1cccc(Oc2nc(Nc3ccc(OCCN(C)C)c(F)c3)nc3ccsc23)c1 | ≤ 50
50 to 100 | C=CC(=O)Nc1cccc(Oc2nc(Nc3ccc(-n4ccnc4)cc3)nc3ccsc23)c1 | ≤ 50
≤ 50 | C=CC(=O)Nc1cccc(Oc2nc(Nc3ccc(CN(C)C)cc3C)nc3ccsc23)c1 | ≤ 50
≤ 50 | C=CC(=O)Nc1cccc(Oc2nc(Nc3ccc(CCN(C)C)cc3)nc3ccsc23)c1 | ≤ 50
50 to 100 | C=CC(=O)Nc1cccc(Oc2nc(Nc3ccc(OCCOC)cc3)nc3ccsc23)c1 | ≤ 50
50 to 100 | C=CC(=O)Nc1cccc(Oc2nc(Nc3ccc(N4CCN(CC(F)(F)F)CC4)cc3)nc3ccsc23)c1 | ≤ 50
50 to 100 | C=CC(=O)Nc1cccc(Oc2nc(Nc3ccc4c(c3)OCCO4)nc3ccsc23)c1 | ≤ 50
50 to 100 | C=CC(=O)Nc1cccc(Oc2nc(Nc3ccc(C(=O)N(C)C)cc3)nc3ccsc23)c1 | 50 to 100
≤ 50 | C=CC(=O)Nc1cccc(Oc2nc(Nc3ccc(N4CCC(N5CCCC5)CC4)cc3)nc3ccsc23)c1 | ≤ 50
≤ 50 | C=CC(=O)Nc1ccc(F)c(Nc2nc(Nc3ccc(N4CCN(C)CC4)c(F)c3)nc3ccsc23)c1 | ≤ 50
≤ 50 | C=CC(=O)Nc1cccc(Nc2nc(Nc3ccc(C4CCN(C)CC4)cc3)nc3ccsc23)c1 | ≤ 50
≤ 50 | C=CC(=O)Nc1cccc(Oc2nc(Nc3ccc(N4CCC(CN(C)C)CC4)cc3)nc3ccsc23)c1 | ≤ 50
≤ 50 | C=CC(=O)Nc1cccc(Oc2nc(Nc3ccc(C4(N)CC4)cc3)nc3ccsc23)c1 | ≤ 50
≤ 50 | C=CC(=O)Nc1cccc(Oc2nc(Nc3ccc(CN4CCC4)cc3)nc3ccsc23)c1 | ≤ 50
≤ 50 | C=CC(=O)Nc1cccc(Oc2nc(Nc3ccc(N4CCN(CC(F)F)CC4)cc3)nc3ccsc23)c1 | ≤ 50
≤ 50 | C=CC(=O)Nc1cccc(Oc2nc(Nc3ccc(CCN4CCN(S(C)(=O)=O)CC4)cc3)nc3ccsc23)c1 | ≤ 50
≤ 50 | C=CC(=O)Nc1cccc(Oc2nc(Nc3ccc(N4CCN(C(=O)CN(C)C)CC4)c(F)c3)nc3ccsc23)c1 | ≤ 50
≤ 50 | C=CC(=O)Nc1cccc(Oc2nc(Nc3ccc(CN4CCCCC4)cc3)nc3ccsc23)c1 | ≤ 50
≤ 50 | C=CC(=O)Nc1cccc(Oc2nc(Nc3ccc(C(=O)NCCN4CCCC4)cc3OC)nc3ccsc23)c1 | 50 to 100
≤ 50 | C=CC(=O)Nc1cccc(Oc2nc(Nc3ccc(N4CCN(S(C)(=O)=O)CC4)c(F)c3)nc3ccsc23)c1 | ≤ 50
50 to 100 | C=CC(=O)Nc1cccc(Oc2nc(Nc3ccc(N4CCN(S(C)(=O)=O)CC4)cc3)nc3ccsc23)c1 | ≤ 50
≤ 50 | C=CC(=O)Nc1cccc(Oc2nc(Nc3ccc(CN4CCN(C)CC4)nc3)nc3ccsc23)c1 | 50 to 100
≤ 50 | C=CC(=O)Nc1cccc(Oc2nc(Nc3ccc(CN4CCC(N5CCOCC5)CC4)cc3)nc3ccsc23)c1 | ≤ 50
100 to 1000 | C=CC(=O)Nc1cccc(Oc2nc(Nc3ccc(CC(=O)NC4CCN(C)CC4)cc3)nc3ccsc23)c1 | ≤ 50
≤ 50 | C=CC(=O)Nc1cccc(Oc2nc(Nc3ccc(C4CCN(C)CC4)c(F)c3)nc3ccsc23)c1 | ≤ 50

GI50 [2] [nM] | SMILES | GI50 [1] [nM]
≤ 50 | C=CC(=O)Nc1cccc(Oc2nc(Nc3ccc(N4CCC(N5CCCC5)CC4)c(F)c3)nc3ccsc23)c1 | ≤ 50
100 to 1000 | C=CC(=O)Nc1cccc(Oc2nc(Nc3ccc(N4CCCCC4)cc3)nc3ccsc23)c1 | ≤ 50
≤ 50 | C=CC(=O)Nc1cccc(Oc2nc(Nc3ccc(C4CCCN(C)C4)cc3OC)nc3ccsc23)c1 (stereo unspecified) | ≤ 50
≤ 50 | C=CC(=O)Nc1cccc(Nc2nc(Nc3ccc(CN4CCCCC4)cc3)nc3ccsc23)c1 | ≤ 50
≤ 50 | C=CC(=O)Nc1cccc(Oc2nc(Nc3ccc(C4CCN(C(C)C)CC4)cc3)nc3ccsc23)c1 | ≤ 50
≤ 50 | C=CC(=O)Nc1cccc(Oc2nc(Nc3ccc(CN4CCN(C)CC4)cc3)nc3ccsc23)c1 | ≤ 50
50 to 100 | C=CC(=O)Nc1cccc(Nc2nc(Nc3ccc(OCCCN(C)C)cc3)nc3ccsc23)c1 | 50 to 100
≤ 50 | C=CC(=O)Nc1cccc(Oc2nc(Nc3ccc(CN4CCN(CC5CC5)CC4)cc3)nc3ccsc23)c1 | ≤ 50
≤ 50 | C=CC(=O)Nc1cccc(Oc2nc(Nc3ccc(CN4CCN(C5CCN(C)CC5)CC4)cc3)nc3ccsc23)c1 | ≤ 50
≤ 50 | C=CC(=O)Nc1cccc(Oc2nc(Nc3ccc(N4CCN(C)CC4)c(OC)c3)nc3ccoc23)c1 | ≤ 50
50 to 100 | C=CC(=O)Nc1cccc(Oc2nc(Nc3ccc(S(=O)(=O)NC4CC4)cc3)nc3ccsc23)c1 | ≤ 50
≤ 50 | C=CC(=O)Nc1cccc(Oc2nc(Nc3ccc(N4CCC(N5CCN(CC)CC5)CC4)cc3)nc3ccsc23)c1 | 100 to 1000
≤ 50 | C=CC(=O)Nc1cccc(Sc2nc(Nc3ccc(N4CCN(C)CC4)cc3)nc3ccsc23)c1 | ≤ 50
50 to 100 | C=CC(=O)Nc1cccc(Oc2nc(Nc3ccc(OCCOC)c(F)c3)nc3ccsc23)c1 | ≤ 50
≤ 50 | C=CC(=O)Nc1cccc(Oc2nc(Nc3ccc(NC4CCN(C)CC4)c(F)c3)nc3ccsc23)c1 | ≤ 50
50 to 100 | C=CC(=O)Nc1cccc(Oc2nc(Nc3ccc(N4CCN(C)CC4)cc3OC)nc3ccsc23)c1 | 50 to 100
50 to 100 | C=CC(=O)Nc1cccc(Nc2nc(Nc3ccc(CCN(C)C)cc3)nc3ccsc23)c1 | ≤ 50
≤ 50 | C=CC(=O)Nc1cccc(Oc2nc(Nc3ccc(N4CCNCC4)cc3)nc3ccsc23)c1 | 100 to 1000
50 to 100 | C=CC(=O)Nc1cccc(Oc2nc(Nc3ccc(N4CCN(C)CC4)cc3F)nc3ccsc23)c1 | 50 to 100
≤ 50 | C=CC(=O)Nc1cccc(Oc2nc(Nc3ccc(C(=O)NC4CCN(C)CC4)c(Cl)c3)nc3ccsc23)c1 | ≤ 50
50 to 100 | C=CC(=O)Nc1cccc(Oc2nc(Nc3ccc(N4CCN(S(=O)(=O)CC)CC4)c(F)c3)nc3ccsc23)c1 | ≤ 50
≤ 50 | C=CC(=O)Nc1cccc(Oc2nc(Nc3ccc(NC4CCN(C)CC4)cc3)nc3ccsc23)c1 | 100 to 1000
≤ 50 | C=CC(=O)Nc1cccc(Oc2nc(Nc3ccc(N4CCC(N5CCOCC5)CC4)c(Cl)c3)nc3ccsc23)c1 | ≤ 50
